In the NIST ThermoML archive (doi:10.1016/j.jct.2012.12.001):
“And” between values parts separate entries of the source, which are not always exact repeats. Equal values may be shown once. Numbers after ± are expanded uncertainties.

Assay: heat capacity at constant pressure per volume; xn = mol fraction of the nth substance listed
Details: 101 kPa, Liquid, DSC, x2 = 0.695

CCCCCCCCCCCCCCCCC [heptadecane] + N#Cc1ccccc1
heat capacity (298.05 K): 1856100 ± 20000 J/K/m3
heat capacity (298.14 K): 1849900 ± 20000 J/K/m3
heat capacity (298.24 K): 1857600 ± 20000 J/K/m3
heat capacity (298.34 K): 1869500 ± 20000 J/K/m3
heat capacity (298.44 K): 1867300 ± 20000 J/K/m3 and 1868100 ± 20000 J/K/m3
heat capacity (298.54 K): 1868700 ± 20000 J/K/m3
heat capacity (298.63 K): 1857900 ± 20000 J/K/m3
heat capacity (298.73 K): 1860800 ± 20000 J/K/m3
heat capacity (298.83 K): 1865800 ± 20000 J/K/m3
heat capacity (298.93 K): 1874400 ± 20000 J/K/m3
heat capacity (299.02 K): 1881300 ± 20000 J/K/m3
heat capacity (299.12 K): 1876400 ± 20000 J/K/m3
heat capacity (299.22 K): 1870300 ± 20000 J/K/m3
heat capacity (299.32 K): 1856400 ± 20000 J/K/m3 and 1858200 ± 20000 J/K/m3
heat capacity (299.42 K): 1872800 ± 20000 J/K/m3
heat capacity (299.52 K): 1876300 ± 20000 J/K/m3
heat capacity (299.61 K): 1873800 ± 20000 J/K/m3
heat capacity (299.71 K): 1875400 ± 20000 J/K/m3
heat capacity (299.81 K): 1870400 ± 20000 J/K/m3
heat capacity (299.91 K): 1865300 ± 20000 J/K/m3
heat capacity (300 K): 1870300 ± 20000 J/K/m3
heat capacity (300.1 K): 1879700 ± 20000 J/K/m3
heat capacity (300.2 K): 1876100 ± 20000 J/K/m3
heat capacity (300.3 K): 1884400 ± 20000 J/K/m3
heat capacity (300.4 K): 1880100 ± 20000 J/K/m3
heat capacity (300.49 K): 1877500 ± 20000 J/K/m3
heat capacity (300.59 K): 1873500 ± 20000 J/K/m3
heat capacity (300.69 K): 1871300 ± 20000 J/K/m3
heat capacity (300.79 K): 1885700 ± 20000 J/K/m3 and 1882900 ± 20000 J/K/m3
heat capacity (300.89 K): 1883300 ± 20000 J/K/m3
heat capacity (300.98 K): 1885200 ± 20000 J/K/m3
heat capacity (301.08 K): 1880800 ± 20000 J/K/m3
heat capacity (301.18 K): 1881200 ± 20000 J/K/m3
heat capacity (301.28 K): 1861100 ± 20000 J/K/m3
heat capacity (301.37 K): 1877300 ± 20000 J/K/m3
heat capacity (301.47 K): 1892900 ± 20000 J/K/m3
heat capacity (301.57 K): 1896800 ± 20000 J/K/m3
heat capacity (301.67 K): 1885900 ± 20000 J/K/m3 and 1887800 ± 20000 J/K/m3
heat capacity (301.77 K): 1883300 ± 20000 J/K/m3
heat capacity (301.87 K): 1884700 ± 20000 J/K/m3
heat capacity (301.96 K): 1888400 ± 20000 J/K/m3
heat capacity (302.06 K): 1899800 ± 20000 J/K/m3
heat capacity (302.16 K): 1898500 ± 20000 J/K/m3
heat capacity (302.26 K): 1888500 ± 20000 J/K/m3
heat capacity (302.35 K): 1894400 ± 20000 J/K/m3
heat capacity (302.45 K): 1890300 ± 20000 J/K/m3
heat capacity (302.55 K): 1891200 ± 20000 J/K/m3
heat capacity (302.65 K): 1899800 ± 20000 J/K/m3 and 1900100 ± 20000 J/K/m3
heat capacity (302.75 K): 1891400 ± 20000 J/K/m3
heat capacity (302.85 K): 1889600 ± 20000 J/K/m3
heat capacity (302.95 K): 1885100 ± 20000 J/K/m3
heat capacity (303.15 K): 1906400 ± 20000 J/K/m3
heat capacity (303.35 K): 1896200 ± 20000 J/K/m3
heat capacity (303.45 K): 1894500 ± 20000 J/K/m3
heat capacity (303.55 K): 1902400 ± 20000 J/K/m3
heat capacity (303.65 K): 1898100 ± 20000 J/K/m3
heat capacity (303.75 K): 1898100 ± 20000 J/K/m3
heat capacity (303.85 K): 1893900 ± 20000 J/K/m3
heat capacity (304.05 K): 1908600 ± 20000 J/K/m3
heat capacity (304.15 K): 1904800 ± 20000 J/K/m3
heat capacity (304.25 K): 1897700 ± 20000 J/K/m3 and 1899000 ± 20000 J/K/m3
heat capacity (304.35 K): 1888500 ± 20000 J/K/m3 and 1889600 ± 20000 J/K/m3
heat capacity (304.45 K): 1900600 ± 20000 J/K/m3
heat capacity (304.55 K): 1901500 ± 20000 J/K/m3
heat capacity (304.65 K): 1903900 ± 20000 J/K/m3
heat capacity (304.75 K): 1894400 ± 20000 J/K/m3
heat capacity (304.85 K): 1881800 ± 20000 J/K/m3
heat capacity (304.95 K): 1915800 ± 20000 J/K/m3
heat capacity (305.05 K): 1912200 ± 20000 J/K/m3
heat capacity (305.15 K): 1901900 ± 20000 J/K/m3
heat capacity (305.25 K): 1924700 ± 20000 J/K/m3
heat capacity (305.35 K): 1907800 ± 20000 J/K/m3
heat capacity (305.45 K): 1925500 ± 20000 J/K/m3
heat capacity (305.55 K): 1943100 ± 20000 J/K/m3
heat capacity (305.65 K): 1963900 ± 20000 J/K/m3
heat capacity (305.75 K): 1942400 ± 20000 J/K/m3
heat capacity (305.85 K): 1924200 ± 20000 J/K/m3
heat capacity (305.95 K): 1983400 ± 20000 J/K/m3
heat capacity (306.05 K): 1910400 ± 20000 J/K/m3
heat capacity (306.15 K): 2011200 ± 20000 J/K/m3
heat capacity (306.25 K): 1898300 ± 20000 J/K/m3
heat capacity (306.35 K): 2003200 ± 20000 J/K/m3
heat capacity (306.45 K): 1935800 ± 20000 J/K/m3
heat capacity (306.55 K): 2021100 ± 20000 J/K/m3
heat capacity (306.65 K): 1945600 ± 20000 J/K/m3
heat capacity (306.75 K): 2006800 ± 20000 J/K/m3
heat capacity (306.85 K): 1978000 ± 20000 J/K/m3
heat capacity (307.05 K): 2038400 ± 22000 J/K/m3
heat capacity (307.15 K): 2126900 ± 28000 J/K/m3
heat capacity (307.25 K): 1846500 ± 38000 J/K/m3
heat capacity (307.35 K): 1804900 ± 21000 J/K/m3
heat capacity (307.45 K): 1791700 ± 20000 J/K/m3
heat capacity (307.55 K): 1787300 ± 20000 J/K/m3
heat capacity (307.65 K): 1779800 ± 20000 J/K/m3
heat capacity (307.75 K): 1775700 ± 20000 J/K/m3
heat capacity (307.85 K): 1767300 ± 20000 J/K/m3
heat capacity (307.95 K): 1764000 ± 20000 J/K/m3
heat capacity (308.05 K): 1758800 ± 20000 J/K/m3
heat capacity (308.15 K): 1759200 ± 20000 J/K/m3
heat capacity (308.23 K): 1750200 ± 20000 J/K/m3
heat capacity (308.35 K): 1756500 ± 20000 J/K/m3
heat capacity (308.45 K): 1756400 ± 20000 J/K/m3
